Laboratory results: ChEMBL document CHEMBL3885881, “DrugMatrix”

Organism: Rattus norvegicus
Experiment: DrugMatrix - Regimen: Daily Repeat
Format: toxicity, organism-based, Sprague-Dawley
Design: regimen Daily Repeat, gender Male, age 6-8 weeks
Conditions: in vivo, po, route oral GAVAGE, vehicle .5 % CMC; for ABSOLUTE BASOPHIL / ABSOLUTE EOSINOPHIL / ABSOLUTE LYMPHOCYTE / ABSOLUTE SEGMENTED NEUTROPHIL / BASOPHIL / EOSINOPHIL / ERYTHROCYTE COUNT / HEMATOCRIT / HEMOGLOBIN / LEUKOCYTE COUNT / LYMPHOCYTE / MEAN CORPUSCULAR HEMOGLOBIN / MEAN CORPUSCULAR HEMOGLOBIN CONCENTRATION / MEAN CORPUSCULAR VOLUME / MONOCYTE / NEUTROPHIL / NUCLEATED RED BLOOD CELLS / PLATELET COUNT: tissue Blood; for ALANINE AMINOTRANSFERASE / ASPARTATE AMINOTRANSFERASE / BLOOD UREA NITROGEN / CARBON DIOXIDE / CHLORIDE / CHOLESTEROL / CREATINE PHOSPHOKINASE / CREATININE / GLUCOSE / LACTATE DEHYDROGENASE / LIPASE / PHOSPHORUS / POTASSIUM / SODIUM / TOTAL BILIRUBIN / TOTAL PROTEIN / URIC ACID: tissue Plasma
[1] = 30 mg/kg, 72 h, dose level Low, time 3 day
[2] = 30 mg/kg, 120 h, dose level Low, time 5 day
[3] = 490 mg/kg, 72 h, dose level High, time 3 day
[4] = 490 mg/kg, 120 h, dose level High, time 5 day

NC(=O)N1c2ccccc2C=Cc2ccccc21 [CARBAMAZEPINE]
ABSOLUTE BASOPHIL [1]: 0 CELLS/uL | ABSOLUTE EOSINOPHIL [1]: 182 CELLS/uL | ABSOLUTE LYMPHOCYTE [1]: 15035.33 CELLS/uL | ABSOLUTE SEGMENTED NEUTROPHIL [1]: 1745.67 CELLS/uL | BASOPHIL [1]: 0% | EOSINOPHIL [1]: 1% | ERYTHROCYTE COUNT [1]: 5.25 x10E6/uL | HEMATOCRIT [1]: 33.47% | HEMOGLOBIN [1]: 12.6 G/DL | LEUKOCYTE COUNT [1]: 17.3 x10E3/uL | LYMPHOCYTE [1]: 86.67% | MEAN CORPUSCULAR HEMOGLOBIN [1]: 24.03 pg | MEAN CORPUSCULAR HEMOGLOBIN CONCENTRATION [1]: 37.67 G/DL | MEAN CORPUSCULAR VOLUME [1]: 63.8 fL | MONOCYTE [1]: 2% | NEUTROPHIL [1]: 10.33% | NUCLEATED RED BLOOD CELLS [1]: 0 /100WBC | PLATELET COUNT [1]: 1486.67 x10E3/uL | ALANINE AMINOTRANSFERASE [1]: 52 u/L | ASPARTATE AMINOTRANSFERASE [1]: 78.33 u/L | BLOOD UREA NITROGEN [1]: 16.33 mg/dL | CARBON DIOXIDE [1]: 25.67 mmol/L | CHLORIDE [1]: 101.67 MEQ/L | CHOLESTEROL [1]: 69.67 mg/dL | CREATINE PHOSPHOKINASE [1]: 157.33 u/L | CREATININE [1]: 0.2 mg/dL | GLUCOSE [1]: 143.33 mg/dL | LACTATE DEHYDROGENASE [1]: 208 u/L | LIPASE [1]: 9 u/L | PHOSPHORUS [1]: 11.33 mg/dL | POTASSIUM [1]: 6.9 MEQ/L | SODIUM [1]: 145 MEQ/L | TOTAL BILIRUBIN [1]: 0.2 mg/dL | TOTAL PROTEIN [1]: 5.53 G/DL | URIC ACID [1]: 1.57 mg/dL | ABSOLUTE BASOPHIL [2]: 0 CELLS/uL | ABSOLUTE EOSINOPHIL [2]: 0 CELLS/uL | ABSOLUTE LYMPHOCYTE [2]: 16159 CELLS/uL | ABSOLUTE SEGMENTED NEUTROPHIL [2]: 1742.33 CELLS/uL | BASOPHIL [2]: 0% | EOSINOPHIL [2]: 0% | ERYTHROCYTE COUNT [2]: 5.72 x10E6/uL | HEMATOCRIT [2]: 35.57% | HEMOGLOBIN [2]: 13.07 G/DL | LEUKOCYTE COUNT [2]: 18.27 x10E3/uL | LYMPHOCYTE [2]: 88.33% | MEAN CORPUSCULAR HEMOGLOBIN [2]: 22.87 pg | MEAN CORPUSCULAR HEMOGLOBIN CONCENTRATION [2]: 36.73 G/DL | MEAN CORPUSCULAR VOLUME [2]: 62.2 fL | MONOCYTE [2]: 2% | NEUTROPHIL [2]: 9.67% | NUCLEATED RED BLOOD CELLS [2]: 0 /100WBC | PLATELET COUNT [2]: 1400 x10E3/uL | ALANINE AMINOTRANSFERASE [2]: 40 u/L | ASPARTATE AMINOTRANSFERASE [2]: 84 u/L | BLOOD UREA NITROGEN [2]: 19.67 mg/dL | CARBON DIOXIDE [2]: 25.33 mmol/L | CHLORIDE [2]: 106.67 MEQ/L | CHOLESTEROL [2]: 60 mg/dL | CREATINE PHOSPHOKINASE [2]: 371 u/L | CREATININE [2]: 0.18 mg/dL | GLUCOSE [2]: 138.67 mg/dL | LACTATE DEHYDROGENASE [2]: 600.67 u/L | LIPASE [2]: 8.67 u/L | PHOSPHORUS [2]: 11.47 mg/dL | POTASSIUM [2]: 6.31 MEQ/L | SODIUM [2]: 144.97 MEQ/L | TOTAL BILIRUBIN [2]: 0.17 mg/dL | TOTAL PROTEIN [2]: 6.17 G/DL | URIC ACID [2]: 1.2 mg/dL | ABSOLUTE BASOPHIL [3]: 0 CELLS/uL | ABSOLUTE EOSINOPHIL [3]: 197 CELLS/uL | ABSOLUTE LYMPHOCYTE [3]: 13021 CELLS/uL | ABSOLUTE SEGMENTED NEUTROPHIL [3]: 740.67 CELLS/uL | BASOPHIL [3]: 0% | EOSINOPHIL [3]: 1% | ERYTHROCYTE COUNT [3]: 6.01 x10E6/uL | HEMATOCRIT [3]: 37.5% | HEMOGLOBIN [3]: 14.23 G/DL | LEUKOCYTE COUNT [3]: 14.27 x10E3/uL | LYMPHOCYTE [3]: 91.33% | MEAN CORPUSCULAR HEMOGLOBIN [3]: 23.77 pg | MEAN CORPUSCULAR HEMOGLOBIN CONCENTRATION [3]: 37.97 G/DL | MEAN CORPUSCULAR VOLUME [3]: 62.57 fL | MONOCYTE [3]: 2% | NEUTROPHIL [3]: 5.67% | NUCLEATED RED BLOOD CELLS [3]: 0 /100WBC | PLATELET COUNT [3]: 1370 x10E3/uL | ALANINE AMINOTRANSFERASE [3]: 67 u/L | ASPARTATE AMINOTRANSFERASE [3]: 98.33 u/L | BLOOD UREA NITROGEN [3]: 20.33 mg/dL | CARBON DIOXIDE [3]: 23.67 mmol/L | CHLORIDE [3]: 100.67 MEQ/L | CHOLESTEROL [3]: 62.67 mg/dL | CREATINE PHOSPHOKINASE [3]: 423.33 u/L | CREATININE [3]: 0.18 mg/dL | GLUCOSE [3]: 127 mg/dL | LACTATE DEHYDROGENASE [3]: 617.67 u/L | LIPASE [3]: 9.33 u/L | PHOSPHORUS [3]: 11.33 mg/dL | POTASSIUM [3]: 6.92 MEQ/L | SODIUM [3]: 141.13 MEQ/L | TOTAL BILIRUBIN [3]: 0.17 mg/dL | TOTAL PROTEIN [3]: 5.83 G/DL | URIC ACID [3]: 1.87 mg/dL | ABSOLUTE BASOPHIL [4]: 0 CELLS/uL | ABSOLUTE EOSINOPHIL [4]: 174 CELLS/uL | ABSOLUTE LYMPHOCYTE [4]: 14815.33 CELLS/uL | ABSOLUTE SEGMENTED NEUTROPHIL [4]: 1394.67 CELLS/uL | BASOPHIL [4]: 0% | EOSINOPHIL [4]: 1% | ERYTHROCYTE COUNT [4]: 6.46 x10E6/uL | HEMATOCRIT [4]: 39.9% | HEMOGLOBIN [4]: 15.17 G/DL | LEUKOCYTE COUNT [4]: 17.07 x10E3/uL | LYMPHOCYTE [4]: 86.67% | MEAN CORPUSCULAR HEMOGLOBIN [4]: 23.47 pg | MEAN CORPUSCULAR HEMOGLOBIN CONCENTRATION [4]: 38.03 G/DL | MEAN CORPUSCULAR VOLUME [4]: 61.8 fL | MONOCYTE [4]: 4% | NEUTROPHIL [4]: 8.33% | NUCLEATED RED BLOOD CELLS [4]: 0.67 /100WBC | PLATELET COUNT [4]: 1286 x10E3/uL | ALANINE AMINOTRANSFERASE [4]: 89 u/L | ASPARTATE AMINOTRANSFERASE [4]: 125 u/L | BLOOD UREA NITROGEN [4]: 18.67 mg/dL | CARBON DIOXIDE [4]: 23.67 mmol/L | CHLORIDE [4]: 105 MEQ/L | CHOLESTEROL [4]: 67.33 mg/dL | CREATINE PHOSPHOKINASE [4]: 770 u/L | CREATININE [4]: 0.14 mg/dL | GLUCOSE [4]: 120 mg/dL | LACTATE DEHYDROGENASE [4]: 265.67 u/L | LIPASE [4]: 9.5 u/L | PHOSPHORUS [4]: 12.47 mg/dL | POTASSIUM [4]: 6.33 MEQ/L | SODIUM [4]: 149.25 MEQ/L | TOTAL BILIRUBIN [4]: 0.2 mg/dL | TOTAL PROTEIN [4]: 6.23 G/DL | URIC ACID [4]: 2.13 mg/dL
